Measured values: paper PMC8694140, “Synthesis and photobiological applications of naphthalimide–benzothiazole conjugates: cytotoxicity and topoisomerase IIα inhibition” (RSC Advances, 2021)
Where two headings read alike, the source gives them in different places.

Key:
[1] = target: human type IIa topoisomerase (Homo sapiens, UniProt P11388); experiment: Relaxation assay of human topoisomerase IIa (supercoiled pHOT1 plasmid DNA, agarose gel); assay type: biochemical; conditions: compared with etoposide (Fig. S56)
Chain of human type IIa topoisomerase (P11388 whole entry): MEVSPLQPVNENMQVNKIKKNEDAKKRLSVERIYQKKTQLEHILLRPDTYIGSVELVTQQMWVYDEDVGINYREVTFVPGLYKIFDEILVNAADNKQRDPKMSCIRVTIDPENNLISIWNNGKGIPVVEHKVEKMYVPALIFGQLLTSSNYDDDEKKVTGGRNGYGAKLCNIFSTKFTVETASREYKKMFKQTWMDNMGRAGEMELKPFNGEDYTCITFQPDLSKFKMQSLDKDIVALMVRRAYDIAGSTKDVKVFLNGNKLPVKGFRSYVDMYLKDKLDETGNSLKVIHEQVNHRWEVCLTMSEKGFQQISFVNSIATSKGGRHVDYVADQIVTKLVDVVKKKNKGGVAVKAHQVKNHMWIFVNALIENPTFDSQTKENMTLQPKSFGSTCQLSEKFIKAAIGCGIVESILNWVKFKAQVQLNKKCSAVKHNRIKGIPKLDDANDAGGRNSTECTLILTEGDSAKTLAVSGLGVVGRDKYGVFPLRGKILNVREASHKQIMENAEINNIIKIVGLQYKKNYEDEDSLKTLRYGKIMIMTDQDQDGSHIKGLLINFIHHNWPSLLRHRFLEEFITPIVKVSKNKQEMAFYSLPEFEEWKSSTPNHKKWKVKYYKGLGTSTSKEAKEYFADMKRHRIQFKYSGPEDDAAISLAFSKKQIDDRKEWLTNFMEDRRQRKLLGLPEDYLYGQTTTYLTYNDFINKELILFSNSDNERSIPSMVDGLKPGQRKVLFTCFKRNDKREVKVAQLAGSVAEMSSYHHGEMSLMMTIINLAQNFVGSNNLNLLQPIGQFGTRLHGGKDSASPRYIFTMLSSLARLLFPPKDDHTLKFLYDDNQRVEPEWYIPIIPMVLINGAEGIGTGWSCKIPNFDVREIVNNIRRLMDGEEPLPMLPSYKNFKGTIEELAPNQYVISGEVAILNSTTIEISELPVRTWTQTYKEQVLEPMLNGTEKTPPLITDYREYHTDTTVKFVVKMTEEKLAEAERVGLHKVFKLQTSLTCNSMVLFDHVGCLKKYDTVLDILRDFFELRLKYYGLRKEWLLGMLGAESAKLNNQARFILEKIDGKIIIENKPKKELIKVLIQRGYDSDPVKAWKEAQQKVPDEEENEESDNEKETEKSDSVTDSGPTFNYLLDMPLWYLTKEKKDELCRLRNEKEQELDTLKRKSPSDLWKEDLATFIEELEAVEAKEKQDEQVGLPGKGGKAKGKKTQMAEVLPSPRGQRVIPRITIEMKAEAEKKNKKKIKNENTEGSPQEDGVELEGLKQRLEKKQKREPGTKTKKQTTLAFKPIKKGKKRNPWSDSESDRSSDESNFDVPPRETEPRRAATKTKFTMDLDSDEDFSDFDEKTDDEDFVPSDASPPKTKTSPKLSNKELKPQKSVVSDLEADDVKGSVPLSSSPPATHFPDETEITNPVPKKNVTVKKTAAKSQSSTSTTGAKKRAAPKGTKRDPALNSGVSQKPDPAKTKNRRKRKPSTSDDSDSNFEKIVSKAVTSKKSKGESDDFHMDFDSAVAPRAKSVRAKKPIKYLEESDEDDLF
Method: The concentrations 0.1, 0.5, 1, 1.5, 2, and 3 μM were taken for both compounds (Fig. 3).
The assay of human type IIa topoisomerase mediated relaxation of supercoiled plasmid DNA was performed using reaction buffer (20 μl) (5 mM dithiothreitol, 0.5 M Tris–HCl, pH 8.0, 20 mM ATP, 1.50 M NaCl, 300 μg ml^−1 BSA, and 100 mM MgCl2) having supercoiled pHOT1 plasmid DNA (500 ng) and human type IIa topoisomerase enzyme (4 units). The reaction mixtures were incubated for 30 min at 37 °C, followed by adding 10% sodium dodecyl sulfate (2 μl) to stop the reaction. Added 0.5 mg ml^−1 proteinase K (1 μl) to the reaction mixture and allowed to incubate for 15 min at 37 °C. Then, added loading buffer, i.e., 0.25% bromophenol blue and 50% glycerol (1 μl) to the reaction mixture and run on 1% agarose gel electrophoresis using TAE buffer (1.14 ml acetic acid, and 0.37 g EDTA pH 8.1, and 100 ml of 10× stock solution–4.8 g of Tris base). The gel containing DNA was stained with ethidium bromide, washed, and photographed using UV light.

[2] = target: T1, human serum albumin (HSA) (Homo sapiens, UniProt P02768); experiment: HSA fluorescence quenching (Stern–Volmer, modified Stern–Volmer, van't Hoff); assay type: binding; conditions: 308 K
T1 sequence (P02768 25-609): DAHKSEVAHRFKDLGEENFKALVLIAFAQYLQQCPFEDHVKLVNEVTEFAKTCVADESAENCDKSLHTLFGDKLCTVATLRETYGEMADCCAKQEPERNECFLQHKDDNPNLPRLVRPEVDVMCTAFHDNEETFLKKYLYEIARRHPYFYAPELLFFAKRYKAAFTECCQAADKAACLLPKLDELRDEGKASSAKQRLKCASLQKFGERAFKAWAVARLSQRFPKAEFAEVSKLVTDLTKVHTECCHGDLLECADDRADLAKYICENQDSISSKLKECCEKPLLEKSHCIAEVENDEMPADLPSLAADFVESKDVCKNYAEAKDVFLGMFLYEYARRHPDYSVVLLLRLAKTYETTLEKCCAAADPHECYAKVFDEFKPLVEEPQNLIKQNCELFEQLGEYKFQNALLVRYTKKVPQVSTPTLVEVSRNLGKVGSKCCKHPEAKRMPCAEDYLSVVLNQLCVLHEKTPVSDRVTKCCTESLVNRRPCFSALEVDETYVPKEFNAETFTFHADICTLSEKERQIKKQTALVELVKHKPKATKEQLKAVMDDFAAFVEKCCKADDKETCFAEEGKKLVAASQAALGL

[3] = target: T1, human serum albumin (HSA); experiment: as above; assay type: binding; conditions: for Kd: read-out: K b (binding constant, modified Stern–Volmer) (converted); for quenching of emission of HSA at 347 nm: HSA 10 μM, compound up to 33 μM, λex 280 nm; for ΔH of HSA binding / ΔS of HSA binding: van't Hoff plot, 298–318 K
Method: The binding of compounds to HSA can affect the fluorescence of these fluorophores.[34–36] […] Incremental addition of compounds 12 and 13 (33 μM) led to good quenching (90–95%) of emission of HSA at 347 nm (Fig. 5, S58, and S59 ^†), which indeed indicated the binding of compounds to HSA. Fluorescence quenching data have been analyzed using the Stern–Volmer equation eqn (3)[38] at three different temperatures, i.e., 298 K, […], and 318 K, where Stern–Volmer plots were obtained (Fig. S60 and S61 ^†). Good linearity of plots was observed having a correlation coefficient (R) ≥ 0.9396 throughout all the experiments. The values of the Stern–Volmer quenching constant (KSV), a measure of fluorescence quenching efficiency of the analyte, were calculated from these plots and are reported in Table 2. The fluorescence quenching mechanism, whether dynamic or static quenching, can be investigated using the dependency of KSV values on temperature. […] Thus, the detected quenching in fluorescence of HSA on the addition of compounds 12 and 13 appears as a result of complex formation between compound and HSA. […] Thus, in the present study, the static quenching phenomenon has occurred in the quenching process for represented HSA–compound systems.
To record the emission spectra, a fixed amount of HSA (10 μM) was titrated with increasing concentration of compounds 12 and 13 (33 μM) in phosphate buffer of pH 7.4 at 298 K, 308 K, and 318 K. All spectra were recorded in the range of 200–800 nm at excitation wavelength 280 nm and a constant slit width was used for excitation and emission throughout the experiments.
To determine the quenching constant, following Stern–Volmer eqn (3) was used.3 [drawing 3] where, F0 and F denote the emission intensity of HSA in free form and the presence of compounds 12 and 13, respectively. The plots of F0/F versus [compound] were used to determine the Stern–Volmer quenching constants (KSV) and bimolecular quenching constants (Kq).
Further to determine the binding constants (Kb) and the average number of binding sites (n), the following modified Stern–Volmer eqn (4) was used.4 [drawing 4] where F0 and F are the same as in eqn (3). The values of Kb and n were determined from intercept and slope, respectively, as log{(F0 − F)/F versus log[compound]} plots.
The thermodynamic parameters such as the change in enthalpy (ΔH) and change in entropy (ΔS) were determined by following the van't Hoff eqn (5):5 [drawing 5] R and T denote the gas constant and absolute temperature, respectively.
The change in free energy (ΔG) for various temperatures was determined by the following eqn (6):6 ΔG = ΔH − TΔS

[4] = target: T1, human serum albumin (HSA); experiment: Excited-state fluorescence lifetime of HSA; assay type: binding; conditions: compound 7 μM
Method: A fluorescence lifetime experiment was performed to discover the quenching mechanism of compounds 12 and 13 for interactions with HSA. The decay lifetime (τ) generally remains unaltered in ground state quenching while it gets changed in excited state quenching.[46,47] The fluorescence lifetime spectrum of HSA (7 μM) was performed upon increasing concentrations of compounds 12 and 13 (0–70 μM) (Fig. S65 ^†). […] Therefore, it can conclude that the fluorescence quenching of HSA by compounds 12 and 13 was characterized as a static quenching and thus formed a stable complex with HSA at the ground state.
Time-resolved fluorescence was recorded by taking a fixed amount of HSA (10 μM) with incremental additions of compounds (12 and 13) ([…]) by maintaining the ratio of HSA : compound = 1 : 0, 1 : 1, 1 : 5 and 1 : 10. The spectra were recorded at 345 nm emission wavelength in phosphate buffer of pH 7.4 at 298 K. To determine the average fluorescence lifetime (τ), the following eqn (7) was used.7 τ = ∑τiαiwhere τi and αi denote decay time and relative amplitude, respectively.

[5] = test system: A549 (lung) human cancer cell line; experiment: MTT cytotoxicity assay, A549; assay type: cell-based; conditions: Homo sapiens, A549, 48 h
Method: Human malignant cell lines, i.e., MCF7 (breast), HeLa (cervix), and A549 (lung), as well as non-cancerous human cell line Hek293 (kidney), were cultured using the Ham's media or DMEM having 10% FBS, […] streptomycin, 100 U ml^−1 penicillin, and 50 mM glutamine. For seeding of cells, 96 well plates were used, maintaining the density of […] cells per well with the help of DMEM as a media having 10% FBS cells. Then, seeded cells were incubated in an incubator having a 5% CO2 supply at 37 °C. Compounds were added to the wells at 1, 10, and 100 μM concentrations, and cells were incubated for 48 h at 37 °C and then added 10 μl of MTT to each well prepared from 5 mg ml^−1 stock solution using 1 × PBS buffer and were incubated for 4 h at 37 °C in the dark. DMSO (100 μl) was used to dissolve the formazan crystals. To determine the concentration of formazan, the crystal absorbance difference was recorded at 570 nm. The percentage of relative cell toxicity was calculated by using the following eqn (1):1 [drawing 1]

[6] = target: T1, human serum albumin (HSA); experiment: Excited-state fluorescence lifetime of HSA; assay type: binding

C=CCn1cc(-c2nc3ccccc3s2)c2cc(-c3ccc4c5c(cccc35)C(=O)N(CCO)C4=O)ccc21 [Compound 12, 6-(1-Allyl-3-(benzo[d]thiazol-2-yl)-1H-indol-5-yl)-2-(2-hydroxyethyl)-1H-benzo[de]isoquinoline-1,3(2H)-dione]
inhibition of topoisomerase II relaxation ([1]; 1 μM): partially inhibitor | inhibition of topoisomerase II relaxation ([1]; 5, 10 and 50 μM): significant and active inhibitors | K SV (Stern–Volmer quenching constant) [2]: 5.19 10^6 M^−1 | K q (bimolecular quenching rate constant) [2]: 5.19 10^14 M^−1 s^−1 | n (average number of binding sites) [2]: 1.17 | ΔG of HSA binding [2]: -8.87 kJ/M | K SV (Stern–Volmer quenching constant) ([3]; 298 K): 10.46 10^6 M^−1 | K q (bimolecular quenching rate constant) ([3]; 298 K): 10.46 10^14 M^−1 s^−1 | n (average number of binding sites) ([3]; 298 K): 1.32 | ΔG of HSA binding ([3]; 298 K): -9.27 kJ/M | Kd ([3]; 298 K): 136 nM | Kd ([3]; 308 K): 658 nM | K SV (Stern–Volmer quenching constant) ([3]; 318 K): 1.27 10^6 M^−1 | K q (bimolecular quenching rate constant) ([3]; 318 K): 1.27 10^14 M^−1 s^−1 | n (average number of binding sites) ([3]; 318 K): 1.30 | ΔG of HSA binding ([3]; 318 K): -8.46 kJ/M | Kd ([3]; 318 K): 1190 nM | quenching of emission of HSA at 347 nm [3]: 90–95% | ΔH of HSA binding [3]: -21.32 kJ/M | ΔS of HSA binding [3]: −40.44 J M^−1 K^−1 | α 1 of HSA fluorescence decay [4]: 0.42 | α 2 of HSA fluorescence decay [4]: 0.20 | α 3 of HSA fluorescence decay [4]: 0.38 | τ 3 of HSA fluorescence decay [4]: 0.80 ns | τ (average fluorescence lifetime of HSA) [4]: 3.13 ns | IC50 [5]: 0.14 ± 0.01 µM | τ 1 of HSA fluorescence decay ([6]; compound 7 μM): 3.29 ns | τ 2 of HSA fluorescence decay ([6]; compound 7 μM): 7.32 ns | α 1 of HSA fluorescence decay ([6]; compound 35 μM): 0.41 | α 2 of HSA fluorescence decay ([6]; compound 35 μM): 0.18 | α 3 of HSA fluorescence decay ([6]; compound 35 μM): 0.40 | τ 1 of HSA fluorescence decay ([6]; compound 35 μM): 3.37 ns | τ 2 of HSA fluorescence decay ([6]; compound 35 μM): 7.34 ns | τ 3 of HSA fluorescence decay ([6]; compound 35 μM): 0.86 ns | τ (average fluorescence lifetime of HSA) ([6]; compound 35 μM): 3.09 ns | α 1 of HSA fluorescence decay ([6]; compound 70 μM): 0.39 | α 2 of HSA fluorescence decay ([6]; compound 70 μM): 0.20 | α 3 of HSA fluorescence decay ([6]; compound 70 μM): 0.41 | τ 1 of HSA fluorescence decay ([6]; compound 70 μM): 3.14 ns | τ 2 of HSA fluorescence decay ([6]; compound 70 μM): 7.03 ns | τ 3 of HSA fluorescence decay ([6]; compound 70 μM): 0.80 ns | τ (average fluorescence lifetime of HSA) ([6]; compound 70 μM): 2.97 ns

C#CCN1C(=O)c2cccc3c(-c4ccc5c(c4)c(-c4nc6ccccc6s4)cn5CC=C)ccc(c23)C1=O [Compound 13, 6-(1-Allyl-3-(benzo[d]thiazol-2-yl)-1H-indol-5-yl)-2-(prop-2-yn-1-yl)-1H-benzo[de]isoquinoline-1,3(2H)-dione]
inhibition of topoisomerase II relaxation ([1]; 1 μM): partially inhibitor | inhibition of topoisomerase II relaxation ([1]; 5, 10 and 50 μM): significant and active inhibitors | K SV (Stern–Volmer quenching constant) [2]: 2.38 10^6 M^−1 | K q (bimolecular quenching rate constant) [2]: 2.38 10^14 M^−1 s^−1 | n (average number of binding sites) [2]: 1.07 | ΔG of HSA binding [2]: -7.93 kJ/M | K SV (Stern–Volmer quenching constant) ([3]; 298 K): 2.58 10^6 M^−1 | K q (bimolecular quenching rate constant) ([3]; 298 K): 2.58 10^14 M^−1 s^−1 | n (average number of binding sites) ([3]; 298 K): 1.17 | ΔG of HSA binding ([3]; 298 K): -8.37 kJ/M | Kd ([3]; 298 K): 662 nM | Kd ([3]; 308 K): 2780 nM | K SV (Stern–Volmer quenching constant) ([3]; 318 K): 0.30 10^6 M^−1 | K q (bimolecular quenching rate constant) ([3]; 318 K): 0.30 10^14 M^−1 s^−1 | n (average number of binding sites) ([3]; 318 K): 1.00 | ΔG of HSA binding ([3]; 318 K): -7.49 kJ/M | Kd ([3]; 318 K): 6670 nM | quenching of emission of HSA at 347 nm [3]: 90–95% | ΔH of HSA binding [3]: -21.41 kJ/M | ΔS of HSA binding [3]: −43.76 J M^−1 K^−1 | α 1 of HSA fluorescence decay [4]: 0.41 | α 2 of HSA fluorescence decay [4]: 0.23 | α 3 of HSA fluorescence decay [4]: 0.36 | τ 3 of HSA fluorescence decay [4]: 0.84 ns | τ (average fluorescence lifetime of HSA) [4]: 3.25 ns | IC50 [5]: 0.31 ± 0.01 µM | τ 1 of HSA fluorescence decay ([6]; compound 7 μM): 3.19 ns | τ 2 of HSA fluorescence decay ([6]; compound 7 μM): 7.17 ns | α 1 of HSA fluorescence decay ([6]; compound 35 μM): 0.39 | α 2 of HSA fluorescence decay ([6]; compound 35 μM): 0.24 | α 3 of HSA fluorescence decay ([6]; compound 35 μM): 0.37 | τ 1 of HSA fluorescence decay ([6]; compound 35 μM): 3.12 ns | τ 2 of HSA fluorescence decay ([6]; compound 35 μM): 6.97 ns | τ 3 of HSA fluorescence decay ([6]; compound 35 μM): 0.85 ns | τ (average fluorescence lifetime of HSA) ([6]; compound 35 μM): 3.19 ns | α 1 of HSA fluorescence decay ([6]; compound 70 μM): 0.39 | α 2 of HSA fluorescence decay ([6]; compound 70 μM): 0.19 | α 3 of HSA fluorescence decay ([6]; compound 70 μM): 0.41 | τ 1 of HSA fluorescence decay ([6]; compound 70 μM): 3.36 ns | τ 2 of HSA fluorescence decay ([6]; compound 70 μM): 7.25 ns | τ 3 of HSA fluorescence decay ([6]; compound 70 μM): 0.86 ns | τ (average fluorescence lifetime of HSA) ([6]; compound 70 μM): 3.08 ns
